Experimental data published in paper PMC4474554 (PLoS ONE, 2015).
Where “and” joins values, the source holds several entries; their conditions need not be identical. Identical values can stand only once. Entries after “also recorded” stand apart in the source; their conditions may differ. Like-named read-outs stand apart in the source and are kept apart here.

How the values were obtained:
HCC827 = type: cell-based
Experimental: (§1) Drug sensitivity was determined by a modified MTS assay with CellTiter 96 AQueous One Solution Reagent (Promega, Madison, WI). Cells were generally seeded on 96-well plates at a density that would yield 80% confluence by the completion of the experiment, varying by each cell line from 3000 to 4000 per well. […] After that, MTS dye was added to each well. The cultures were incubated for another 1 hour at 37°C in a humidified atmosphere with 5% CO2. Optical densities of samples were measured at 490 nm using Immuno Mini NJ-2300 (Nalge Nunc International KK, Rochester, NY). Mean optical density at each drug concentration was calculated after discarding the highest and lowest values. […] IC50 values were expressed as mean and standard deviations. The assays were repeated until the standard deviation became less than the mean.

[1] = system: HEK-293T with mutant EGFR (L858R); type: cell-based
Experimental: as §1

phospho-FAK = assay: Western blotting, FAK phosphorylation in NSCLC cell lines; type: cell-based
Experimental: Next, they were washed out with cold PBS and lysed in 1 × cell lysis buffer [20 mM Tris-HCl (pH 7.5), 150 mM NaCl, 1 mM Na2EDTA, 1 mM EGTA, 1% Triton, 2.5 mM sodium pyrophosphate, 1 mM beta-glycerophosphate, 1 mM Na3VO4, 1 μg/ml leupeptin] (Cell signaling Technology) supplemented with Complete, Mini (Roche, Basel, Switzerland) to extract protein. After the protein concentration was measured, equal amounts of total protein (30 μg) were separated by SDS-PAGE and transferred to PVDF membranes. The proteins on membranes were incubated overnight at 4°C with the primary antibodies. The following secondary antibodies were used: goat antirabbit or antimouse IgG-conjugated horseradish peroxidase (HRP) (Santa Cruz Biotechnology, Santa Cruz, CA). To detect specific signals, the membranes were incubated by ECL plus Western Blotting Detection Reagents (Amersham Biosciences UK Limited, Buckinghamshire, UK).

PC-9 xenograft = PC-9 xenograft mouse model; type: in vivo, BALB/c-nu/nu female nude mice; conditions: oral, once a day, 14 days, 30, 60 and 90 mg/kg, dose-dependent
Experimental: (§2) In this experiment, we used BALB/c-nu/nu female nude mice at 4–6 weeks of age that were purchased from Charles River Laboratories Japan, Inc (Yokohama, Japan). They were maintained under specific-pathogen-free conditions in accordance with the guidelines of the Animal Care and Use Committee at Okayama University. […] Every three days, body weight of the mice and the major axis and minor axis of each tumor were measured and calculated tumor volume using the following formula; (major axis) × (minor axis)^2 × 1/2 [37, 38]. For the 14 days, tumor volume, tumor growth rate and the body weight were analyzed as an average of the each group.

[2] = Body weight / side effects in xenograft mice; type: in vivo, BALB/c-nu/nu female nude mice; conditions: 14 days, nude mice with xenografts
Experimental: as §2

IGF-1R = system: IGF-1R; set-up: method as in earlier work; conditions: updated data; cited from earlier work
HER2 = conditions: updated data; cited from earlier work
KDR = system: KDR; set-up: method as in earlier work; conditions: updated data; cited from earlier work
Flt-4 = system: Flt-4; set-up: method as in earlier work; conditions: updated data; cited from earlier work
c-Abl = system: c-Abl; set-up: method as in earlier work; conditions: updated data; cited from earlier work
JAK-2 = system: JAK-2; set-up: method as in earlier work; conditions: updated data; cited from earlier work
ALK = conditions: updated data; cited from earlier work
c-Raf = system: c-Raf; set-up: method as in earlier work; conditions: updated data; cited from earlier work
PDK1 = system: PDK1; set-up: method as in earlier work; conditions: updated data; cited from earlier work
PC-9 = assay: MTS assay, PC-9
MKN45 = assay: MTS assay, MKN45
Calu-3 = assay: MTS assay, Calu-3
NCI-H838 = assay: MTS assay, NCI-H838
NCI-H3255 = assay: MTS assay, NCI-H3255
NCI-H1666 = assay: MTS assay, NCI-H1666
NCI-H1993 = assay: MTS assay, NCI-H1993

## CNC(=O)c1ccccc1Nc1nc(Nc2ccc(N3CCOCC3)cc2OC)ncc1Cl [TAE226]
HCC827; HCC827, EGFR Exon 19 del (E746-A750), MTS, TAE226 48 hours, gefitinib 72 hours, read-out: IC50 (μM) (mean ± SD)
  IC50: 0.086 ± 0.01 µM
HCC827; HCC827, independent MTS assays, read-out: each IC50
  IC50: 0.061 µM and 0.095 µM and 0.09 µM and 0.1 µM
[1]; HEK293T-L858R, independent MTS assays, read-out: each IC50
  IC50: 0.43 µM
[1]; Transfected HEK-293T, mutant EGFR (L858R), MTS, TAE226 48 hours, gefitinib 72 hours, read-out: IC50 (μM) (mean ± SD)
  IC50: 0.41 ± 0.06 µM
phospho-FAK; data not shown
  concentration at which FAK phosphorylation was inhibited: […]
phospho-FAK; up to a concentration of 5 μM, PC-9, HCC827, NCI-H1975, RPC-9, NCI-H1299, NCI-H1819
  phosphorylation of FAK (Thy397): not significantly inhibited; also recorded: not suppressed
PC-9 xenograft
  tumor volume / tumor growth compared with vehicle-treated mice: significantly decreased; also recorded: significantly inhibited
[2]; 30mg/kg or 60mg/kg oral
  obvious side effects, including the loss of body weight: did not occur
[2]; 90 mg/kg oral
  body weight: loss of body weight was observed
IGF-1R
  IC50: […]
HER2
  IC50: 0.95 µM
KDR
  IC50: […]
Flt-4
  IC50: 0.22 µM
c-Abl
  IC50: 5.9 µM
JAK-2
  IC50: 0.84 µM
ALK
  IC50: […]
c-Raf
  IC50: > 10 µM
PDK1
  IC50: > 10 µM
PC-9; read-out: IC50 (μM) (mean ± SD), PC-9, EGFR Exon 19 del (E746-A750), MTS, TAE226 48 hours, gefitinib 72 hours
  IC50: […]
PC-9; read-out: each IC50, PC-9, independent MTS assays
  IC50: […]
PC-9; read-out: mean IC50, PC-9, mean of independent MTS assays
  IC50: […]
MKN45; read-out: IC50 (μM) (mean ± SD), MKN45 (gastric cancer), MET amplification, MTS, TAE226 48 hours
  IC50: 1.1 ± 0.06 µM
MKN45; read-out: each IC50, MKN45, independent MTS assays
  IC50: 1.04 µM and 1.16 µM
Calu-3; read-out: IC50 (μM) (mean ± SD), Calu-3, HER2 amplification, MTS, TAE226 48 hours, gefitinib 72 hours
  IC50: 4.1 ± 0.37 µM
Calu-3; read-out: each IC50, Calu-3, independent MTS assays
  IC50: 4.5 µM and 3.8 µM
NCI-H838; read-out: IC50 (μM) (mean ± SD), NCI-H838, no alterations, MTS, TAE226 48 hours, gefitinib 72 hours
  IC50: 6.2 ± 0.02 µM
NCI-H838; read-out: each IC50, NCI-H838, independent MTS assays
  IC50: 6.3 µM and 6.2 µM
NCI-H838; read-out: mean IC50, NCI-H838, mean of independent MTS assays
  IC50: 6.2 µM
NCI-H3255; read-out: IC50 (μM) (mean ± SD), NCI-H3255, EGFR Exon 21 (L858R), MTS, TAE226 48 hours, gefitinib 72 hours
  IC50: 0.12 ± 0.005 µM
NCI-H3255; read-out: each IC50, NCI-H3255, independent MTS assays
  IC50: 0.12 µM and 0.13 µM
NCI-H3255; read-out: mean IC50, NCI-H3255, mean of independent MTS assays
  IC50: 0.12 µM
NCI-H1666; read-out: IC50 (μM) (mean ± SD), NCI-H1666, BRAF Exon 11 (G466V), MTS, TAE226 48 hours, gefitinib 72 hours
  IC50: 0.42 ± 0.08 µM
NCI-H1666; read-out: each IC50, NCI-H1666, independent MTS assays
  IC50: 0.5 µM and 0.34 µM
NCI-H1993; read-out: IC50 (μM) (mean ± SD), NCI-H1993, MET amplification, MTS, TAE226 48 hours, gefitinib 72 hours
  IC50: 0.89 ± 0.001 µM
NCI-H1993; read-out: each IC50, NCI-H1993, independent MTS assays
  IC50: 0.89 µM
NCI-H1993; read-out: mean IC50, NCI-H1993, mean of independent MTS assays
  IC50: 0.89 µM
